Measurements reported in US8354419B2, “Benzimidazole analogues for the treatment or prevention of flavivirus infections” (Vertex Pharmaceuticals Incorporated, priority 2009, dated 2013).
Read-outs that look alike come from different tables or passages of the source.

Tested on: HCV (Ib) RNA replication
Assay: Cell-based luciferase reporter HCV (1b) RNA replication assay (replicon cell lines Huh-7 5.2 and ET)
Set-up: species or system Hepatitis C virus
Conditions: HCV 1b genotype replicon, luciferase readout, 4 days incubation, read-out: EC50_1b
Outline: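 Compounds were tested at eleven concentrations in duplicate over 4 days at 37 °C, 5% CO2. The cells were luciferase-reporter HCV 1b replicon lines 5.2 (NS5A adaptive mutation) or ET (NS4B mutation). Luminescence of lysates was measured, and IC50s were derived by nonlinear curve fitting.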

| SMILES | EC50 (Hepatitis C virus, Huh-7, 96 h) | EC50 |
| --- | --- | --- |
| Cn1c([C@@H]2CCCN2C(=O)OC(C)(C)C)nc2cc(-c3ccc(-c4ccc5[nH]c([C@@H]6CCCN6C(=O)OC(C)(C)C)nc5c4)cc3)ccc21 [Compound 226] | 5 to 5000 nM | – |
| Cn1c([C@@H]2CCCN2)nc2cc(-c3ccc(-c4ccc5c(c4)nc([C@@H]4CCCN4)n5C)cc3)ccc21 [Compound 227] | > 5000 nM | – |
| Cn1c([C@@H]2CCCN2)nc2cc(-c3ccc(-c4ccc5[nH]c([C@@H]6CCCN6)nc5c4)cc3)ccc21 [Compound 228] | > 5000 nM | – |
| COC(=O)N[C@H](C(=O)N1CCC[C@H]1c1nc2ccc(N3CCN(c4ccc5nc([C@@H]6CCCN6C(=O)[C@@H](NC(=O)OC)C(C)C)[nH]c5c4)CC3)cc2[nH]1)C(C)C [Compound 229] | ≤ 5 nM | – |
| O=C1O[C@@H]2C[C@@H]3C[C@@H]2[C@@H]1[C@H]3C(=O)N1CCC[C@H]1c1nc2cc(-c3ccc(-c4ccc5[nH]c([C@@H]6CCCN6C(=O)[C@H]6[C@H]7C[C@@H]8[C@H]6C(=O)O[C@@H]8C7)nc5c4)cc3)ccc2[nH]1 [Compound 230] | 5 to 5000 nM | – |
| COC(=O)N[C@H](C(=O)N1CCC[C@H]1c1nc2cc(-c3ccc(-c4ccc5c(c4)nc([C@@H]4CCCN4C(=O)[C@@H](NC(=O)OC)C(C)C)n5C)cc3)ccc2n1C)C(C)C [Compound 231] | > 5000 nM | – |
| COC(=O)N[C@H](C(=O)N1CCC[C@H]1c1nc2cc(-c3ccc(-c4ccc5c(c4)nc([C@@H]4CCCN4C(=O)[C@@H](NC(=O)OC)C(C)C)n5C)cc3)ccc2[nH]1)C(C)C [Compound 232] | ≤ 5 nM | – |
| COC(=O)N[C@H](C(=O)N1C[C@@H](C)C[C@H]1c1nc2cc(-c3cc4sc(-c5ccc6[nH]c([C@@H]7C[C@H](C)CN7C(=O)[C@@H](NC(=O)OC)C(C)C)nc6c5)cc4s3)ccc2[nH]1)C(C)C [Compound 233] | ≤ 5 nM | – |
| COC(=O)N[C@H](C(=O)N1[C@H](c2nc3cc(-c4ccc(-c5ccc6[nH]c([C@@H]7C[C@@H]8C[C@@H]8N7C(=O)[C@@H](NC(=O)OC)C(C)C)nc6c5)cc4)ccc3[nH]2)C[C@@H]2C[C@@H]21)C(C)C [Compound 234] | ≤ 5 nM | – |
| COC(=O)N[C@H](C(=O)N1CC[C@@H](O)[C@H]1c1nc2ccc(-c3ccc(-c4ccc5nc([C@@H]6[C@H](O)CCN6C(=O)[C@@H](NC(=O)OC)C(C)C)[nH]c5c4)cc3)cc2[nH]1)C(C)C [Compound 235] | ≤ 5 nM | – |
| COC(=O)N[C@H](C(=O)N1CCC[C@H]1c1nc2ccc(-c3coc(-c4ccc5nc([C@@H]6CCCN6C(=O)[C@@H](NC(=O)OC)C(C)C)[nH]c5c4)n3)cc2[nH]1)C(C)C [Compound 236] | ≤ 5 nM | – |
| COC(=O)N[C@H](C(=O)N1C[C@@H](C)C[C@H]1c1nc2cc(-c3ccc(-c4ccc5[nH]c([C@@H]6C[C@H](C)CN6C(=O)[C@@H](NC(=O)OC)C(C)C)nc5c4)c(C)c3)ccc2[nH]1)C(C)C [Compound 237] | ≤ 5 nM | – |
| COC(=O)N[C@H](C(=O)N1CCC[C@H]1c1nc2ccc(-c3cn(C)c(-c4ccc5nc([C@@H]6CCCN6C(=O)[C@@H](NC(=O)OC)C(C)C)[nH]c5c4)n3)cc2[nH]1)C(C)C [Compound 238] | 5 to 5000 nM | – |
| COC(=O)N[C@H](C(=O)N1[C@@H]2C[C@@H]2C[C@H]1c1nc2cc(-c3ccc(-c4ccc5[nH]c([C@@H]6C[C@H]7C[C@H]7N6C(=O)[C@@H](NC(=O)OC)C(C)C)nc5c4)cc3)ccc2[nH]1)C(C)C [Compound 240] | ≤ 5 nM | – |
| COC(=O)N[C@H](C(=O)N1CCC[C@H]1c1nc2cc(-c3ccc(-c4ccc5[nH]c([C@@H]6CCCN6C(=O)[C@@H](Nc6ncccn6)C(C)C)nc5c4)cc3)ccc2[nH]1)C(C)C [Compound 241] | ≤ 5 nM | – |
| COC(=O)N[C@H](C(=O)N1C[C@@H](C)C[C@H]1c1nc2cc(-c3ccc(-c4ccc5[nH]c([C@@H]6C[C@H](C)CN6C(=O)[C@@H](NC(=O)OC)C(C)C)nc5c4)c(F)c3)ccc2[nH]1)C(C)C [Compound 242] | ≤ 5 nM | – |
| COC(=O)N[C@H](C(=O)N1CC2CC2C1c1nc2cc(-c3ccc(-c4ccc5[nH]c(C6C7CC7CN6C(=O)[C@@H](NC(=O)OC)C(C)C)nc5c4)cc3)ccc2[nH]1)C(C)C (some centres unmarked) [Compound 243] | ≤ 5 nM | – |
| COC(=O)N[C@H](C(=O)N1CC2CC2C1c1nc2cc(-c3ccc(-c4ccc5[nH]c(C6C7CC7CN6C(=O)[C@@H](NC(=O)OC)C(C)C)nc5c4)cc3)ccc2[nH]1)C(C)C (some centres unmarked) [Compound 244] | – | ≤ 5 nM |
| COC(=O)N[C@H](C(=O)N1CC2(CC2)C[C@H]1c1nc2cc(-c3ccc(-c4ccc5[nH]c([C@@H]6CC7(CC7)CN6C(=O)[C@@H](NC(=O)OC)C(C)C)nc5c4)cc3)ccc2[nH]1)C(C)C [Compound 245] | ≤ 5 nM | – |
| COC(=O)N[C@H](C(=O)N1C[C@@H](C)C[C@H]1c1nc2cc(-c3ccc(-c4ccc5nc([C@@H]6C[C@@H](O)CN6C(=O)[C@H](NC(=O)OC)C(C)C)[nH]c5c4)cc3)ccc2[nH]1)C(C)C [Compound 246] | ≤ 5 nM | – |
| COC(=O)N(C)[C@H](C(=O)N1C[C@@H](C)C[C@H]1c1nc2cc(-c3ccc(-c4ccc5[nH]c([C@@H]6C[C@H](C)CN6C(=O)[C@H](C(C)C)N(C)C(=O)OC)nc5c4)cc3)ccc2[nH]1)C(C)C [Compound 247] | ≤ 5 nM | – |

| SMILES | EC50 (Hepatitis C virus, Huh-7, 96 h) | EC50 |
| --- | --- | --- |
| COC(=O)N[C@H](C(=O)N1C[C@H](C)C[C@H]1c1nc2cc(-c3ccc(-c4ccc5[nH]c([C@@H]6C[C@@H](C)CN6C(=O)[C@@H](NC(=O)OC)C(C)C)nc5c4)cc3)ccc2[nH]1)C(C)C [Compound 248] | ≤ 5 nM | – |
| COC(=O)N[C@H](C(=O)N1CCC[C@@]1(C)c1nc2cc(-c3ccc(-c4ccc5[nH]c([C@]6(C)CCCN6C(=O)[C@@H](NC(=O)OC)C(C)C)nc5c4)cc3)ccc2[nH]1)C(C)C [Compound 249] | ≤ 5 nM | – |
| COC(=O)N[C@H](C(=O)N1CCC[C@H]1c1nc2c(F)cc(-c3ccc(-c4cc(F)c5nc([C@@H]6CCCN6C(=O)[C@@H](NC(=O)OC)C(C)C)[nH]c5c4)cc3)cc2[nH]1)C(C)C [Compound 250] | ≤ 5 nM | – |
| COC(=O)N[C@H](C(=O)N1C[C@@H](C)C[C@H]1c1nc2cc(C#CC#Cc3ccc4[nH]c([C@@H]5C[C@H](C)CN5C(=O)[C@@H](NC(=O)OC)C(C)C)nc4c3)ccc2[nH]1)C(C)C [Compound 251] | ≤ 5 nM | – |
| COC(=O)N[C@H](C(=O)N1C[C@@H](C)C[C@H]1c1nc2cc(-c3cc(C)c(-c4ccc5[nH]c([C@@H]6C[C@H](C)CN6C(=O)[C@@H](NC(=O)OC)C(C)C)nc5c4)cc3C)ccc2[nH]1)C(C)C [Compound 252] | ≤ 5 nM | – |
| COC(=O)N[C@H](C(=O)N1C[C@@H](C)C[C@H]1c1nc2cc(-c3ccc(-c4ccc5[nH]c([C@@H]6C[C@H](C)CN6C(=O)[C@H](C(C)C)N(C)C(=O)OC)nc5c4)cc3)ccc2[nH]1)C(C)C [Compound 253] | ≤ 5 nM | – |
| COC(=O)N[C@H](C(=O)N1CCC[C@H]1c1nc2c(F)cc(-c3ccc(-c4cc(F)c5nc([C@@H]6CCCN6C(=O)[C@@H](NC(=O)OC)C(C)C)[nH]c5c4)c(C)c3)cc2[nH]1)C(C)C [Compound 254] | ≤ 5 nM | – |
| COC(=O)N[C@H](C(=O)N1CCC[C@H]1c1nc2cc(-c3ccc(-c4ccc5nc([C@@H]6CCCN6C(=O)[C@@H](NC(=O)OC)C(C)C)n(C)c5c4)cc3)ccc2[nH]1)C(C)C [Compound 255] | ≤ 5 nM | – |
| Cn1c(C2CCCN2C(=O)OC(C)(C)C)nc2ccc(-c3ccc(-c4ccc5[nH]c(C6CCCN6C(=O)OC(C)(C)C)nc5c4)cc3)cc21 (centres unmarked) [Compound 256] | 5 to 5000 nM | – |
| Cn1c([C@@H]2CCCN2C(=O)OC(C)(C)C)nc2ccc(-c3ccc(-c4ccc5nc([C@@H]6CCCN6C(=O)OC(C)(C)C)n(C)c5c4)cc3)cc21 [Compound 257] | 5 to 5000 nM | – |
| COC(=O)N[C@H](C(=O)N1CCC[C@H]1c1nc2ccc(N3C[C@H](C)N(c4ccc5nc([C@@H]6CCCN6C(=O)[C@@H](NC(=O)OC)C(C)C)[nH]c5c4)C[C@H]3C)cc2[nH]1)C(C)C [Compound 258] | ≤ 5 nM | – |
| COC(=O)N[C@H](C(=O)N1CCC[C@H]1c1nc2ccc(-c3ccc(-c4ccc5nc([C@@H]6CCCN6C(=O)[C@@H](NC(=O)OC)C(C)C)n(C)c5c4)cc3)cc2n1C)C(C)C [Compound 259] | ≤ 5 nM | – |
| COC(=O)N(C)[C@H](C(=O)N1C[C@@H](C)C[C@H]1c1nc2cc(-c3cc4sc(-c5ccc6[nH]c([C@@H]7C[C@H](C)CN7C(=O)[C@H](C(C)C)N(C)C(=O)OC)nc6c5)cc4s3)ccc2[nH]1)C(C)C [Compound 260] | ≤ 5 nM | – |
| COC(=O)N[C@H](C(=O)N1C[C@H](C)C[C@H]1c1nc2cc(-c3ccc(-c4ccc5[nH]c([C@@H]6C[C@@H](C)CN6C(=O)[C@@H](NC(=O)OC)C(C)C)nc5c4)c(C)c3)ccc2[nH]1)C(C)C [Compound 261] | ≤ 5 nM | – |
| COC(=O)N[C@H](C(=O)N1C[C@@H](C)C[C@H]1c1nc2cc(-c3ccc(-c4ccc5[nH]c([C@@H]6C[C@H](C)CN6C(=O)[C@@H](Nc6ncccn6)C(C)C)nc5c4)cc3)ccc2[nH]1)C(C)C [Compound 262] | ≤ 5 nM | – |
| COC(=O)N[C@H](C(=O)N1C[C@@H](C)C[C@H]1c1nc2ccc(-c3ccc(-c4ccc(-c5ccc6nc([C@@H]7C[C@H](C)CN7C(=O)[C@@H](NC(=O)OC)C(C)C)[nH]c6c5)cc4)cc3)cc2[nH]1)C(C)C [Compound 263] | ≤ 5 nM | – |
| COC(=O)N[C@H](C(=O)N1C[C@@H](C)C[C@H]1c1nc2cc(-c3cc4sc(-c5ccc6[nH]c([C@@H]7C[C@H](C)CN7C(=O)[C@H](C(C)C)N(C)C(=O)OC)nc6c5)cc4s3)ccc2[nH]1)C(C)C [Compound 264] | ≤ 5 nM | – |
| COC(=O)N[C@H](C(=O)N1C[C@@H](O)C[C@H]1c1nc2cc(-c3ccc(-c4ccc5[nH]c([C@@H]6C[C@H](O)CN6C(=O)[C@@H](NC(=O)OC)C(C)C)nc5c4)c(C)c3)ccc2[nH]1)C(C)C [Compound 265] | ≤ 5 nM | – |
| COC(=O)N(C)[C@H](C(=O)N1C[C@@H](C)C[C@H]1c1nc2cc(-c3ccc(-c4ccc5[nH]c([C@@H]6C[C@H](C)CN6C(=O)[C@H](C(C)C)N(C)C(=O)OC)nc5c4)c(C)c3)ccc2[nH]1)C(C)C [Compound 266] | ≤ 5 nM | – |
| COC(=O)N[C@H](C(=O)N1CC[C@H](C)[C@H]1c1nc2cc(-c3ccc(-c4ccc5[nH]c([C@@H]6[C@@H](C)CCN6C(=O)[C@@H](NC(=O)OC)C(C)C)nc5c4)cc3)ccc2[nH]1)C(C)C [Compound 267] | ≤ 5 nM | – |
